pIC50: −log10 of the molar value. Converted amounts (≈) assume the structure as drawn.
Columns and labels:
Sortilin (Homo sapiens) = Sortilin (Homo sapiens) (UniProt Q99523); experiment: Displacement of [3H]-neurotensin from sortilin (unknown origin) at 50 uM incubated 30 mins prior to [3H]-neurotensin addition measured after 6 hrs by scintillation proximity assay
Sortilin = target: T1, Sortilin (Homo sapiens, UniProt Q99523)
T1 sequence (Q99523 whole entry): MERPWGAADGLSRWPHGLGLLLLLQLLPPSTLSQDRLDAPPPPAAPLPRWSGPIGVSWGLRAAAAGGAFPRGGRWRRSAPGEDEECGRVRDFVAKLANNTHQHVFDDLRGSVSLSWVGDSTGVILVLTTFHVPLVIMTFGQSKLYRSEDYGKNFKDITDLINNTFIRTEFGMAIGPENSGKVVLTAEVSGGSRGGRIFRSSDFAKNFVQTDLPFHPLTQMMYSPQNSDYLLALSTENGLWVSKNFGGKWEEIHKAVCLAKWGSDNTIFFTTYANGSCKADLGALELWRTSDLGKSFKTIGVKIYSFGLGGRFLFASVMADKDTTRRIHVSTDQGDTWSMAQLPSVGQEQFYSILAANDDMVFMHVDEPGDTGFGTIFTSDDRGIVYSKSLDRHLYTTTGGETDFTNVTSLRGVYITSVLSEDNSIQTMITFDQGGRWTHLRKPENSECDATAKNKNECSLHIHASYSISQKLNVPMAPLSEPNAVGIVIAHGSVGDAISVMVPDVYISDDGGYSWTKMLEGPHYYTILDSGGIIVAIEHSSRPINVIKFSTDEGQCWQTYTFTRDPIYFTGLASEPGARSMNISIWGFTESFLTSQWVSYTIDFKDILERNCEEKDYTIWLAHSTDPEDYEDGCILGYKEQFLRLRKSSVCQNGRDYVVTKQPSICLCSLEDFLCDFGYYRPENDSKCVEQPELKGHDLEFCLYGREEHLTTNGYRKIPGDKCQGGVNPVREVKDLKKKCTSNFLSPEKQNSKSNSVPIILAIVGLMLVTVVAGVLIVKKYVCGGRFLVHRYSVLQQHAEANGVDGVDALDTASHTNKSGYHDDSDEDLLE

[1] = Intrinsic clearance in rat; assay type: ADME, organism-based; settings: in vivo
[2] = Solubility of the compound; assay type: physicochemical
[3] = Oral bioavailability in rat at 2 mg/kg; assay type: ADME, organism-based; settings: in vivo
[4] = Blood clearance in rat at 1 mg/kg, iv; assay type: ADME, organism-based; set-up: dose 1 mg/kg, route intravenous; settings: whole blood
[5] = Free plasma concentration in rat; assay type: ADME, cell-free
[6] = Cmax in rat at 2 mg/kg, po; assay type: ADME, organism-based; set-up: dose 2 mg/kg, route oral; settings: in vivo
[7] = Volume of distribution at steady state in rat at 1 mg/kg, iv; assay type: ADME, organism-based; set-up: dose 1 mg/kg, route intravenous; settings: in vivo, read-out: Vdss
[8] = Half life in rat at 1 mg/kg, iv; assay type: ADME, organism-based; set-up: dose 1 mg/kg, route intravenous; settings: in vivo

## Cc1cccc(NC(=O)c2c(C)cccc2C(=O)O)n1
Sortilin (Homo sapiens)
  inhibition: 43%

## CCC(C)NC(=O)c1ccc(Br)cc1C(=O)O (stereo not given)
Sortilin (Homo sapiens)
  inhibition: 30%

## Cc1cccc(NC(=O)c2ccc(-c3ccccc3)cc2C(=O)O)n1
Sortilin (Homo sapiens)
  inhibition: 2%

## Cc1cccc(NC(=O)c2ccccc2C(=O)O)n1
Sortilin (Homo sapiens)
  inhibition: 15%

## CC(C)NC(=O)c1ccc(Br)cc1C(=O)O
Sortilin (Homo sapiens)
  inhibition: 35%

## O=C(O)c1cc(Br)ccc1C(=O)Nc1ccccc1
Sortilin (Homo sapiens)
  inhibition: 69%

## Cc1cccnc1NC(=O)c1ccc(Br)cc1C(=O)O
Sortilin (Homo sapiens)
  inhibition: 64%

## Cc1cc(=O)oc2c(CN[C@@H](CC(C)C)C(=O)O)c(O)ccc12
Sortilin
  pIC50: 5.40

## Cc1cccc(NC(=O)c2cc(Cl)ccc2C(=O)O)n1
Sortilin (Homo sapiens)
  inhibition: 69%

## Cc1ccc(C(=O)O)c(C(=O)Nc2cccc(C)n2)c1
Sortilin (Homo sapiens)
  inhibition: 57%

## Cc1cccc(NC(=O)c2ccc(C(F)(F)F)cc2C(=O)O)n1
[1]
  CLint scaled: 6.67 mL/min/kg
[2]
  solubility: 134 µg/mL (≈ 413 µM)
[3]
  bioavailability: 35%
[4]
  clearance: 0.5 mL/min/kg
[5]
  fraction unbound: 0.02
[6]
  Cmax: 12800 ng/mL
[7]
  Vd: 0.02 L/kg
[8]
  half-life: 1.2 h

## Cc1ccc(NC(=O)c2ccc(Br)cc2C(=O)O)cn1
Sortilin (Homo sapiens)
  inhibition: 70%

## Cc1cccc(NC(=O)c2cccc(C)c2C(=O)O)n1
Sortilin (Homo sapiens)
  inhibition: 5%

From ChEMBL document CHEMBL3098109, “The identification of AF38469: an orally bioavailable inhibitor of the VPS10P family sorting receptor Sortilin” (Bioorg Med Chem Lett, 2014)
